Results as given in patent publication US12139729B2, “Neurodegenerative disorders” (priority 2013, dated 2024).
Read-outs that look alike come from different tables or passages of the source. Residues, ends and D or L forms follow the SMILES beside them. No end group written: not given here.

Tests used:
[1] = Sulforhodamine B (SRB) cell viability assay; type: cell-based; conditions: 1 hour
Protocol: Wild-type PC12 cell were provided by Sigma-Aldrich (St. Louis, MO). The culture was routinely plated in 100 mm dishes (Corning) coated with collagen (2 μg/cm^2) and maintained in growth medium with Minimum Essential Medium Eagle (MEM) supplemented with heat-inactivated 10% horse serum (HS) and 5% foetal bovine serum (FBS), 10 mM HEPES, 2 mM L-Glutamine and 1:400 Penicillin/streptomycin solution. Cells were maintained at 37° C. in a humidified atmosphere 5% CO2 and the medium was replaced every 2 days. For splitting, cells were dislodged from the dish using a pipette with medium, with a portion of these replated onto new cultured dishes. Cells were used between passages 12 and 25.
The cell viability assay used was the sulforhodamine B (SRB) colorimetric assay for toxicity screening. The day before of the experiment cells were seeded onto collagen-coated 96-well plates in a concentration of 40,000 cells/well. Cell concentration was determined by the Fuchs-Rosenthal chamber. […] After treatment, medium was replaced and cells were fixed by adding 100 μl of 10% Trichloroacetic Acid (TCA) for 1 h at 4° C. Thereafter, cells were washed with H2O and stained with 100 μl of a 0.057% SRB solution in 1% Acetic acid (HAc) for 30 minutes at room temperature. After staining cells were washed with 1% HAc for removing the excess of SRB and then incubated with 200 μl of 10 mM Tris base (pH 10.5) and shake it for 5 minutes to solubilise the protein-bound dye. Measurement of the absorbance took place in a VMax Kinetic Microplate Reader (Molecular Devices) at 490 nm.

[2] = Cell Counting Kit-8 (CCK-8) cell viability assay; type: cell-based
Source text: A Cell Counting Kit-8 (CCK-8) was used as an improvement of the SRB technique used before. By utilizing the highly water-soluble tetrazolium salt WST-8, CCK-8 produces a water-soluble formazan dye upon reduction in the presence of an electron carrier. WST-8 is reduced by dehydrogenases in cells to give a yellow colored product (formazan), which is soluble in the tissue culture medium. The amount of the formazan dye generated by the activity of dehydrogenases in cells is directly proportional to the number of living cells. PC12 cells are plated in 200 μl of complete growth medium the day before the experiment in 96 well plates. Treatments with T30 and NBP-14 are added and incubated for 1 hour in the incubator.
Subsequently, 100 μl of growth medium is removed and 10 μl of CCK-8 (Cell Counting Kit-8) solution is added. The plate is incubated for 2 hours in the incubator and then placed in the absorbance plate reader. The absorbance must be measured at 450 nm.

[3] = target: T1, α7nAChR (the α7 nicotinic acetylcholine receptor), allosteric site (Rattus norvegicus, UniProt Q05941); test: [3H] Ivermectin binding assay on PC12 cell membranes
T1 construct: [3H]; host or cells: wild-type PC12 cells
Protocol: PC12 membranes where obtained to perform binding assays. PC12 cells were grown until confluence on 100 mm plates. Growth medium was removed and ice-cold 50 mM Tris-HCl buffer (pH 7.4) containing 4.5 μg/μ1 aprotinin and 0.1 mM phenylmethylsulphonylfluoride (PMSF) were added. Cells were mechanically detached and pelleted by centrifugation (1040×g) for 4 minutes at 4° C. Pellets were homogenized with a Polytron and centrifuged (13000×g) for 20 minutes at 4° C. The pellets were resuspended in fresh buffer and incubated at 37° C. for 10 minutes to remove endogenous neurotransmitters. The samples were subsequently re-centrifuged. The final pellet was resuspended in buffer and the protein concentration determined using the Bradford Reagent (Sigma-Aldrich, St. Louis, MO). The cell membrane preparation was stored at −80° C.
For the binding with PC12 membranes, each incubation was performed in polystyrene tube (VWR International Ltd; Leicestershire, UK) containing 0.25 ml of membranes diluted in Tris-HCl 50 mM buffer (containing 50 μg of PC12 membranes) with 5 nM [3H] […] Thereafter, samples were filtered through Brandel GB glass fibre filters (MD, USA); pre-soaked in 0.5% polyethylenemine by a Harvester (Brandel; MD, USA). Tubes were washed 3 times with ice cold 50 mM Tris-HCl buffer. Radioactivity in the tubes was counted by scintillation spectrometry using a 300 SL Liquid scintillation counter (Lablogic Systems Limited, UK). Specific binding was determined by subtracting the non-specific (cells treated with Ivermectin 30 μM) value to all the tubes.

PC12 cells = test: AChE release / AChE activity in perfusate of treated PC12 cells (Ellman assay); type: cell-based
[4] = test system: Amyloid Precursor Protein (APP); test: Western blot detection of full-length APP in solubilized PC12 cells; type: cell-based; conditions: 1 hour
Protocol: PC12 cells are plated with growth medium in Petri Dishes for a week in order to have enough protein to detect APP in PC12 membranes and treated for 1 hour with T30 and NBP-14 before solubilizing the protein. Once the cells have grown until 90% confluence, the growth medium is removed and cells are re-suspended in 2 ml of HBSS. The cells suspension is transferred to a 15 ml tube and centrifuge 5 minutes at 1000 rpm. Then the supernatant is discarded and the pellet is re-suspended in Lysis buffer (20 mM Tris, 137 mM NaCl, 1% Triton X-100, 2 mM EDTA; pH 8) plus protease inhibitors (1 μl:1 ml PMSF and 3 μl:1 ml Aprotinin) and triturated by using a Polytron for 10 seconds. Subsequently, the triturated pellet is distributed in 1.5 ml eppendorfs and rotated or shaken for 2 h at 4° C. […] The Bradford reagent is used to quantify the protein contained in each eppendorf. […]
The steps for electrophoresis are the following: • a) Prepare the lower and the upper acrilamide gels. The % for APP gel is 10% lower gel and 5% stacking gel. • b) Prepare 24 μl of sample at a concentration of 25 μg (determined by the Bradford Assay) (6 μl SB 4× containing β-mercaptoethanol+protein+lisis) and boil them at 100° C. for 5 minutes to denaturalize them. • c) Put the protein marker and the samples in the wells of the gel (20-30 μL). • d) Proceed to Migration: 35 mA (nearly 1 hour). […]

T1 sequence (Q05941 23-502): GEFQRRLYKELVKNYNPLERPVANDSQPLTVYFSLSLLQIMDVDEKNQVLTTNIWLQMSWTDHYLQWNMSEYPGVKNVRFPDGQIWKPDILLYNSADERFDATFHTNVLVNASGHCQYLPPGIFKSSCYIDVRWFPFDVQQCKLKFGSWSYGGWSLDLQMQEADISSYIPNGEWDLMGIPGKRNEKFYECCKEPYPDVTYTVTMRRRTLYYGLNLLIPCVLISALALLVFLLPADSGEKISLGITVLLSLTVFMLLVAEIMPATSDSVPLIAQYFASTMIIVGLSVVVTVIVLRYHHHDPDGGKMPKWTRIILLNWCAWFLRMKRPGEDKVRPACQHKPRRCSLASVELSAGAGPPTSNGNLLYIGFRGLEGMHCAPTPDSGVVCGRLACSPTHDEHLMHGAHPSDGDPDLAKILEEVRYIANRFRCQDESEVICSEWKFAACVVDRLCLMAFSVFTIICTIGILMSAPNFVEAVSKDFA

Q: For `CSCC[C@@H]1NC(=O)[C@H](Cc2ccc(O)cc2)NC(=O)[C@H](CO)NC(=O)[C@H](CO)NC(=O)[C@H](Cc2c[nH]c3ccccc23)NC(=O)[C@H](CCCNC(=N)N)NC(=O)[C@H](Cc2c[nH]cn2)NC(=O)[C@H](Cc2ccccc2)NC(=O)[C@H](CCC(=O)O)NC(=O)[C@H](C)NC(=O)[C@H](CCCCN)NC(=O)[C@H](Cc2c[nH]c3ccccc23)NC(=O)[C@H](Cc2c[nH]cn2)NC(=O)[C@H](C(C)C)NC1=O` [Cyclic T14] (cyclo(AEFHRWSSYMVHWK)), which viability ([1]; T30 10 μM + Cyclic T14 100 nM, read-out: cell viability, T30 combined with Cyclic T14) is on record?
A: 88.6 ± 8.79%

Q: What about the viability ([1]; cell viability, β-amyloid combined with Cyclic T14, β-Amyloid 10 μM + Cyclic T14 100 nM) of the same compound?
A: 94.5 ± 7.4%

Q: What about the viability ([1]; cell viability, β-amyloid combined with Cyclic T14, β-Amyloid (10 μM) + Cyclic T14 0.5 nM) of the same compound?
A: 88.5 ± 10%

Q: And the viability ([1]; cell viability, β-amyloid combined with Cyclic T14, β-Amyloid (10 μM) + Cyclic T14 1 nM)?
A: 97.3 ± 9.57%

Q: What about the viability ([1]; cell viability, β-amyloid combined with Cyclic T14, β-Amyloid (10 μM) + Cyclic T14 10 nM) of the same compound?
A: 102 ± 8.53%

Q: And the viability ([1]; cell viability, β-amyloid combined with Cyclic T14, β-Amyloid (10 μM) + Cyclic T14 50 nM)?
A: 102 ± 14%

Q: What about the viability at 10 µM ([1]; cell viability, β-amyloid combined with Cyclic T14, β-Amyloid (10 μM) + Cyclic T14 'moo' (nM)) of the same compound?
A: 104 ± 6.34%

Q: And the viability at 1 h, 0.1 µM ([1]; rat, PC12 cells (wild-type), Cyclic T14 alone 100 nM, PC12)?
A: 98.8 ± 15.2%

Q: And the viability at 1 h, 0.7 µM ([1]; rat, PC12 cells (wild-type), Cyclic T14 alone 700 nM, PC12)?
A: 107 ± 19.9%

Q: What about the viability at 1 h, 1 µM ([1]; rat, PC12 cells (wild-type), Cyclic T14 alone 1 μM, PC12) of the same compound?
A: 105 ± 10.9%

Q: And the viability at 1 h, 100 µM ([1]; rat, PC12 cells (wild-type), Cyclic T14 alone 100 μM, PC12)?
A: 93.6 ± 11.6%

Q: What about the viability ([2]; T30 5 uM + NBP-14 5 nM (1st of 10 values), read-out: cell viability, T30 + NBP-14) of the same compound?
A: 76.2 ± 7.51%

Q: And the viability ([2]; T30 5 uM + NBP-14 7 nM (2nd of 10 values), read-out: cell viability, T30 + NBP-14)?
A: 67 ± 4.35%

Q: What about the viability ([2]; T30 5 uM + NBP-14 9 nM (3rd of 10 values), read-out: cell viability, T30 + NBP-14) of the same compound?
A: 76 ± 4.22%

Q: And the viability ([2]; T30 5 uM + NBP-14 10 nM (4th of 10 values), read-out: cell viability, T30 + NBP-14)?
A: 71.4 ± 1.64%

Q: What about the viability ([2]; T30 5 uM + NBP-14 20 nM (5th of 10 values), read-out: cell viability, T30 + NBP-14) of the same compound?
A: 79 ± 10.2%

Q: And the viability ([2]; T30 5 uM + NBP-14 50 nM (6th of 10 values), read-out: cell viability, T30 + NBP-14)?
A: 75.2 ± 3.9%

Q: What about the viability ([2]; T30 5 uM + NBP-14 70 nM (7th of 10 values), read-out: cell viability, T30 + NBP-14) of the same compound?
A: 62.4 ± 3.01%

Q: And the viability ([2]; T30 5 uM + NBP-14, 8th of 10 values, concentration unclear, read-out: cell viability, T30 + NBP-14)?
A: 78.1 ± 2.16%

Q: What about the viability ([2]; T30 5 uM + NBP-14, 9th of 10 values, concentration unclear, read-out: cell viability, T30 + NBP-14) of the same compound?
A: 117 ± 3.62%

Q: What about the viability ([2]; T30 5 uM + NBP-14, 10th of 10 values, concentration unclear, read-out: cell viability, T30 + NBP-14) of the same compound?
A: 108 ± 5.1%

Q: What about the “% [3H] Ivermectin binding (Mean ± SEM)” value ([3]; 100 nM competitor, Table 2, N = 6) of the same compound?
A: 98.10 ± 3.28%

Q: What about the “% [3H] Ivermectin binding (Mean ± SEM)” value ([3]; 200 nM competitor, Table 2) of the same compound?
A: 80.81 ± 4.37%

Q: And the “% [3H] Ivermectin binding (Mean ± SEM)” value ([3]; 500 nM competitor, Table 2)?
A: 79.72 ± 6.76%

Q: And the “% [3H] Ivermectin binding (Mean ± SEM)” value ([3]; 700 nM competitor, Table 2)?
A: 62.26 ± 17.63%

Q: What about the “% [3H] Ivermectin binding (Mean ± SEM)” value ([3]; 1 μM competitor, Table 2) of the same compound?
A: 29.006 ± 8.23%

Q: And the “% [3H] Ivermectin binding (Mean ± SEM)” value ([3]; 2 μM competitor, Table 2)?
A: 13.46 ± 10.40%

Q: What about the “AChE activity, T14 combined with Cyclic T14” value (PC12 cells; T14 10 μM + Cyclic T14 100 nM, 1 hour) of the same compound?
A: 112.30±1.39

Q: What about the “released AChE activity, T30 + NBP-14” value (PC12 cells; T30 5 uM + NBP-14 5 nM (1st of 10 values)) of the same compound?
A: 130.73±1.84%

Q: And the “released AChE activity, T30 + NBP-14” value (PC12 cells; T30 5 uM + NBP-14 7 nM (2nd of 10 values))?
A: 111.68±2.26%

Q: What about the “released AChE activity, T30 + NBP-14” value (PC12 cells; T30 5 uM + NBP-14 9 nM (3rd of 10 values)) of the same compound?
A: 92.78±0.99%

Q: What about the “released AChE activity, T30 + NBP-14” value (PC12 cells; T30 5 uM + NBP-14 10 nM (4th of 10 values)) of the same compound?
A: 82.56±2.38%

Q: And the “released AChE activity, T30 + NBP-14” value (PC12 cells; T30 5 uM + NBP-14 20 nM (5th of 10 values))?
A: 68.90±0.92%

Q: What about the “released AChE activity, T30 + NBP-14” value (PC12 cells; T30 5 uM + NBP-14 50 nM (6th of 10 values)) of the same compound?
A: 65.12±1.32%

Q: And the “released AChE activity, T30 + NBP-14” value (PC12 cells; T30 5 uM + NBP-14 70 nM (7th of 10 values))?
A: 61.04±0.97%

Q: And the “released AChE activity, T30 + NBP-14” value (PC12 cells; T30 5 uM + NBP-14, 8th of 10 values, concentration unclear)?
A: 79.43±1.69%

Q: What about the “released AChE activity, T30 + NBP-14” value (PC12 cells; T30 5 uM + NBP-14, 9th of 10 values, concentration unclear) of the same compound?
A: 83.91±1.24%

Q: And the “released AChE activity, T30 + NBP-14” value (PC12 cells; T30 5 uM + NBP-14, 10th of 10 values, concentration unclear)?
A: 89.55±1.25%

Q: And the “concentration range protective against AChE compensatory effects” value (PC12 cells; T30 5 uM, FIG. 14)?
A: high nanomolar concentrations

Q: And the “levels of full length APP (control 100%)” value ([4]; T30 5 μM + NBP-14 0.5 μM)?
A: 126%±1.12

Q: With “KAEFHRWSSYMVHWKNQFDHYSKQDRCSDL [T30, reference compound]” as the compound, how does the viability at 10 µM ([1]; 10 μM, PC12, read-out: cell viability, peptide alone) read?
A: 68.4 ± 3.1%

Q: What about the viability ([2]; T30 5 uM alone, 1 hour, N=3, read-out: cell viability) of the same compound?
A: 74.3%

Q: And the cytotoxicity ([2]; T30 5 uM, read-out: decrease of cell viability)?
A: 25%

Q: And the “% [3H] Ivermectin binding (Mean ± SEM)” value ([3]; 1 nM competitor, Table 1)?
A: 109.16 ± 11.9%

Q: And the “% [3H] Ivermectin binding (Mean ± SEM)” value ([3]; 10 nM competitor, Table 1)?
A: 116.63 ± 13.25%

Q: What about the “% [3H] Ivermectin binding (Mean ± SEM)” value ([3]; 100 nM competitor, Table 1) of the same compound?
A: 106.15 ± 8.04%

Q: And the “% [3H] Ivermectin binding (Mean ± SEM)” value ([3]; 1 μM competitor, Table 1)?
A: 97.41 ± 7.9%

Q: And the “% [3H] Ivermectin binding (Mean ± SEM)” value ([3]; 5 μM competitor, Table 1)?
A: 80.22 ± 3.81%

Q: What about the “AChE activity, peptide alone” value (PC12 cells; 10 μM, 1 hour, PC12) of the same compound?
A: 129.10±1.18

Q: What about the “released AChE activity” value (PC12 cells; T30 5 uM alone, N=3) of the same compound?
A: 169.45%±2.11

Q: And the “levels of full length APP (control 100%)” value ([4]; T30 5 μM)?
A: 67.82%±6.23
